# Assay results reported in patent CN1202821A, “用于从面颊释放药物的组合物和方法” (Theratech Inc, priority 1995, dated 1998).
# “And” between values parts separate entries of the source, which are not always exact repeats. Identical values can stand only once.
# Columns and labels:
# [1] = Buccal delivery of salmon calcitonin from bilayer tablets in dogs (Table 3); assay type: in vivo, dog; conditions: individual dogs, 2 tablets
# [2] = Dog buccal mucosa model: insulin bilayer tablet, blood glucose; assay type: in vivo; conditions: mean of 4 dogs, 1 buccal tablet of 0.375 inch, 5 U/kg
# [3] = Double-blind, placebo-controlled crossover study of buccal GLP-1(7-36) amide bilayer tablet: blood glucose, plasma insulin, plasma glucagon; assay type: in vivo, human; conditions: 400 μg buccal bilayer tablet, healthy volunteers
# [4] = buccal, dose 119 nmol
compound,measurement,setting,value
CC(C)C[C@H](NC(=O)[C@H](CCCCN)NC(=O)CNC(=O)[C@H](CC(C)C)NC(=O)[C@@H](NC(=O)[C@@H]1CSSC[C@H](N)C(=O)N[C@@H](CO)C(=O)N[C@@H](CC(N)=O)C(=O)N[C@@H](CC(C)C)C(=O)N[C@@H](CO)C(=O)N[C@@H]([C@@H](C)O)C(=O)N1)C(C)C)C(=O)N[C@@H](CO)C(=O)N[C@@H](CCC(N)=O)C(=O)N[C@@H](CCC(=O)O)C(=O)N[C@@H](CC(C)C)C(=O)N[C@@H](Cc1c[nH]cn1)C(=O)N[C@@H](CCCCN)C(=O)N[C@@H](CC(C)C)C(=O)N[C@@H](CCC(N)=O)C(=O)N[C@H](C(=O)N[C@@H](Cc1ccc(O)cc1)C(=O)N1CCC[C@H]1C(=O)N[C@@H](CCCNC(=N)N)C(=O)N[C@H](C(=O)N[C@@H](CC(N)=O)C(=O)N[C@H](C(=O)NCC(=O)N[C@@H](CO)C(=O)NCC(=O)N[C@H](C(=O)N1CCC[C@H]1C(N)=O)[C@@H](C)O)[C@@H](C)O)[C@@H](C)O)[C@@H](C)O [鲑鱼降钙素],ng吸收 (ng absorbed),[1]; 0.71 cm2,"6,535 ng and 23,379 ng"
same,ng吸收 (ng absorbed),[1]; 1.27 cm2,"72,958 ng and 16,461 ng and 20,989 ng and 17,614 ng"
胰岛素: human insulin in the buccal bilayer tablet of Example 6,control of blood glucose concentration by buccal delivery,[2],有效的
CC[C@H](C)[C@H](NC(=O)[C@H](Cc1ccccc1)NC(=O)[C@H](CCC(=O)O)NC(=O)[C@H](CCCCN)NC(=O)[C@H](C)NC(=O)[C@H](C)NC(=O)[C@H](CCC(N)=O)NC(=O)CNC(=O)[C@H](CCC(=O)O)NC(=O)[C@H](CC(C)C)NC(=O)[C@H](Cc1ccc(O)cc1)NC(=O)[C@H](CO)NC(=O)[C@H](CO)NC(=O)[C@@H](NC(=O)[C@H](CC(=O)O)NC(=O)[C@H](CO)NC(=O)[C@@H](NC(=O)[C@H](Cc1ccccc1)NC(=O)[C@@H](NC(=O)CNC(=O)[C@H](CCC(=O)O)NC(=O)[C@H](C)NC(=O)[C@@H](N)Cc1c[nH]cn1)[C@@H](C)O)[C@@H](C)O)C(C)C)C(=O)N[C@@H](C)C(=O)N[C@@H](Cc1c[nH]c2ccccc12)C(=O)N[C@@H](CC(C)C)C(=O)N[C@H](C(=O)N[C@@H](CCCCN)C(=O)NCC(=O)N[C@@H](CCCNC(=N)N)C(N)=O)C(C)C [GLP-1(7-36)酰胺],hypoglycaemia,[3],没有导致低血糖症
same,生物利用度 (bioavailability),"[4]; individual subjects 901-907, listed as GLP-1(η-36)酰胺",8.04 % and 6.40 % and 10.01 %
same,"生物利用度 (bioavailability), mean",[4]; mean (平均) of subjects,7.08 %
